Values of other authors in US20040247633A1, “Novel dermatological composition” (EBERSYTES, LLC, priority 2003, published 2004).

Conditions: metal chelate

CC(O)C(=O)[O-].CC(O)C(=O)[O-].[Cu+2] (stereo not shown) [Copper lacate]
Affinity Constant: 10^10-10^12
